Measured values from patent US20050192217A1, “Utilization of lipopeptides or lipoproteins in wound treatment and infection prophylaxis” (priority 1998, published 2005).
Where “and” joins values, the source holds several entries; their conditions need not be identical. Identical values can stand only once. Marks after values point to notes of the source that are not given here. Ends that are not written are not given here. * marks the point of attachment. X1 = 2,3‑bispalmitoyloxy‑(2S)‑propyl, CCCCCCCCCCCCCCCC(=O)OC[C@@H](C*)OC(=O)CCCCCCCCCCCCCCC; Propyl(2R-PamO,3-PamO) = CCCCCCCCCCCCCCCC(=O)OC[C@H](C*)OC(=O)CCCCCCCCCCCCCCC

Tests used:
[1] = test system: peritoneal leukocytes; assay: Leukocyte inflow into the peritoneal cavity after intraperitoneal injection; type: in vivo, NMRI mice; conditions: for PEC: 72 hours
Method: The model of inflow of granulocytes and macrophages into the peritoneal cavity of the mouse served as an example of the effectiveness of synthetic lipopeptides or liposomes into which such lipopeptides were incorporated. NMRI-outbred mice were used as experimental animals in order to exclude genetic peculiarities.
At time 0, the following preparations are injected in a sterile manner and in physiological sodium chloride solution into the peritoncal cavity of the experimental animals. Groups of 6 mice were killed after different times, the peritoneal cavity was washed with 1.2 ml of sterile sodium chloride solution and the number of leukocytes and the leukocyte composition was determined in this cell suspension.
Here, as above, groups of 5 NMRI mice were treated with different amounts of R-MALP-2=S-[2,3-Bispalmitoyloxy-(2R)-propyl]cysteinyl-GNNDESNISFKEK (SEQ ID NO:10) or S-MALP-2=S-[2,3-Bispalmitoyloxy-(2S)-propyl]cysteinyl-GNNDESNISFKEK (SEQ ID NO:8)applied intraperitoneally, and after 3 days the total number as well as the composition of the peritoneal leukocytes were determined.

[2] = test system: abdominal sepsis; assay: Colon ascendens stent peritonitis model, survival after pretreatment; type: in vivo, C57BL/6 mice; conditions: 2 μg i.p. two days before the surgical intervention
Method: “Colon ascendens stent peritonitis” is a new model for abdominal sepsis, which may follow surgical intervention [Zantl et al., Infekt. Immun., 66:2300-2309 (1998)]. The following experiments were carried out in order to evaluate the ability of MALP-2 to increase the survival rate in this model. Groups of 12 to 18 C57BL/6 mice were injected intraperitoneally with 2 μg of S-MALP-2 in 200 μL of physiological sodium chloride solution or with the same volume of physiological sodium chloride solution either 2 or 4 days before surgical intervention. The surgical intervention was carried out under ether anesthesia. The abdomen was disinfected with 70% ethanol and then opened by section in the middle line (1 cm). A venous catheter (16 gauge) was inserted into the lumen of the […] colon and secured with two stitches using Ethilon thread (7/0). Then the inner needle of the stent was removed, the catheter was shortened to a length of a few millimeters and a small drop of feces was pressed out from the catheter. The peritoneal cavity was rinsed with 0.5 Ml of sodium chloride solution before closing the abdomen. Among the mice with the control, sodium chloride solution (18 per group), none lived longer than 90 h. […]

[3] = test system: wounds; assay: Wound-healing experiment; type: in vivo, (diabetic) C57BLKS/J-m+/+-Lepr^db mice; conditions: 5 μg in 100 μL into the wound each day up to day 4, diabetic mice
Method: A wound-healing experiment was carried out as follows. On day 1, (diabetic) C57BLKS/J-m+/+-Lepr^db mice were shaved on the back. On day 0, the animals were anesthetized with ether and the backs were disinfected with Braunoderm. After that, circular regions (1.3 cm diameter) were cut from the skin of the back of each mouse. The edges of the wound were treated with benzoin tincture; then 100 μL of the MALP-2 preparation or of the vehicles were introduced into each wound (10 mice for each treatment group). The wounds were covered with transparent patches of Tegaderm. Each day, up to day 4, 100 μL of the preparation (content 5 μg of MALP-2) or vehicle preparation was injected into the wound bed through the Tegaderm patches or placed in the wound when the bandage was changed. The mice were kept individually in separate cages. In order to avoid infections, baytril (Bayer) was introduced in the drinking water (50 mg/L of enrofloxacin). The bandages were changed once a week under ether anesthesia, and the wound edges were recorded on microscope slides. The areas shown were determined with a standard CCD camera using Scionlmage software. The wounds were checked visually for infections; liquid samples from obviously infected wounds were tested on blood agar plates. Mice with infected wounds were removed from further analyses.

[4] = test system: skin of NMRI mice; assay: Intracutaneous application in the skin: leukocyte accumulation and new tissue formation; type: in vivo; conditions: 2 μg intracutaneously
Method: The following experiment was carried out in order to show the effect of MALP-2 upon intracutaneous application.

[5] = test system: skin sections; assay: Infiltration of cells and proliferation by nucleic acids in skin sections after intracutaneous injection; type: in vivo, C57BLKS/J mice
Method: 1. Determination of infiltration of cells and proliferation by measurement of nucleic acids in skin sections after intracutaneous (ic) injection of various MALP-2 doses. On day 1, the back of C57BLKS/J mice was shaved and hair was removed with Veet. On day 0, the animals were anesthetized with metofane; various doses of MALP-2, dissolved in 30 percent 2-propanol, were injected in volumes of up to 10 μL onto the back (ic). Corresponding volumes of the vehicle without MALP-2 were injected onto the back of the same mice at another location. The animals were killed 10 days later, and punched skin sections (diameter 0.8 cm) were taken from the MALP-2 injection sites and from the control injection sites. The skin biopsies were defatted by extraction with methanol, methanol/chloroform (1+1) and chloroform for 15 minutes and were hydrolyzed in 10 N Hcl overnight at 110° C. The samples were dried, taken up in water and clarified by filtration through a sterile filter (0.2 μm); the nucleic acids were determined by measuring the absorption at 260 nm. […] At this dose, the nucleic acid content increased at the MALP-2 injection site by 97±43% in comparison to the corresponding control biopsy (4 animals per group).

[6] = test system: wounds; assay: Cell colonization and proliferation (nucleic acids) in treated wounds; type: in vivo, C57BLKS/J-m+/+Lepr^db mice (diabetic); conditions: diabetic mice, after 10 days
Method: 2. Cell colonization and proliferation were measured in the skin section (0.8 cm diameter) of wounds which were treated with various amounts of MALP-2. For this experiment, (C57BLKS/J-m+/+Lepr^db mice (diabetic) were shaved on the back and hair was removed with Veet. The animals were anesthetized with metofane and their backs were disinfected with Braunol. Then circular skin segments (0.8 cm diameter) were taken from the back of each mouse. The wounds were covered with transparent hydrofilm (Hartmann, Germany); MALP-2 or other vehicles were injected into the wound bed through the film in a volume of 50 μL. After 10 days, the animals were killed; the thin layer of cells, which closes the wound, was sectioned ([…]). The punched samples were hydrolyzed and the nucleic acids determined as before. […] At this dose, 349±24 μg of nucleic acid per biopsy sample were found in the animals treated with MALP-2 while the value was 142±22 μg in the comparison samples (4 animals per group; p<0.0001).

What does the source list for “S-[2,3-Bispalmitoyloxy-(2R)-propyl]cysteinyl-GNNDESNISFKEK (C(Propyl(2R-PamO,3-PamO))GNNDESNISFKEK) [R-MALP-2, reference compound]”?
PEC ([1]; 10 μg i.p., group mean φ of 5): 8.64 ± 3 ×10^6; PEC ([1]; 10 μg i.p., individual animals A-E): 11.1 ×10^6 and 4.05 ×10^6 and 11.4 ×10^6 and 7.65 ×10^6 and 9 ×10^6

With “S-[2,3-Bispalmitoyloxy-(2S)-propyl]cysteinyl-GNNDESNISFKEK (C(X1)GNNDESNISFKEK) [S-MALP-2]” as the substance, how does the “animals surviving for 150 h or longer” value [2] read?
Its value is 4 out of 12.

What about the PEC ([1]; 1 μg i.p., group mean φ of 5) of the same substance?
Its PEC is 10.2 ± 2.2^a ×10^6.

What about the PEC ([1]; 1 μg i.p., individual animals A-E) of the same substance?
Its PEC is 9.1 ×10^6 and 10.8 ×10^6 and 9.35 ×10^6 and 13.7 ×10^6 and 7.9 ×10^6.

And the PEC ([1]; 5 μg i.p., group mean φ of 5)?
Its PEC is 14.5 ± 1.9^a,b ×10^6.

And the PEC ([1]; 5 μg i.p., individual animals A-E)?
The PEC was 14.4 ×10^6 and 15.2 ×10^6 and 17.3 ×10^6 and 13.1 ×10^6 and 12.5 ×10^6.

What about the “in vivo effect on peritoneal leukocytes, S-MALP-2 compared with R-MALP-2” value ([1]; i.p., after 3 days, groups of 5 NMRI mice) of the same substance?
The value was “clearly more effective”.

And the “wound healing (wound area, FIG. 7)” value [3]?
Its value is “significant acceleration of wound healing”.

And the “accumulation of leukocytes at the injection site” value ([4]; after 3 days)?
Its value is “a clear accumulation of leukocytes is observed”.

What about the “formation of new tissue and vessels” value ([4]; after 6 days) of the same substance?
Its value is “new tissue and vessels are formed”.

With “S-[2,3-bispalmitoyloxy-(2RS)-propyl]cysteinyl-GNNDESNISFKEK [MALP-2]” as the substance, how does the Peritoneal cells ([1]; 9 μg i.p., after 72 hours, groups of 6 animals, mean) read?
The Peritoneal cells was 11.2 ± 3.1^b ×10^6.

And the “increase of nucleic acid content at the injection site in comparison to the control biopsy” value ([5]; 5 μg per injection site ic, 10 days, 4 animals per group)?
The value was 97±43%.

And the “optimal dose per injection site” value ([5]; intracutaneous injection, skin biopsy 10 days later)?
Its value is 5 µg.

What about the “nucleic acid per biopsy sample” value ([6]; 5 μg per wound, 4 animals per group) of the same substance?
The value was 349 ± 24 µg.

And the “optimal dose per wound” value ([6]; injected into the wound bed)?
The value was 5 µg.
